A word on the melting point: it is the temperature of the solid-liquid transition.

This passage reports melting point results from a melting point compilation (Tetko et al.; mined from patent text by program, amines drawn as free bases though some values may be those of a salt).

In turn, `CCc1noc2c(Cl)c3c(cc12)CC(C(=O)O)O3` (centres undefined) registered a melting point of 213 to 215 °C.
In the case of `CCCN(Cc1ccc(-c2ccccc2-c2nc(=S)o[nH]2)cc1)c1nc(C)ncc1C(=O)OCC` it was 170 to 172 °C.
In turn, `CCC1c2cccn2-c2ccc(C(F)(F)F)cc2N1S(=O)(=O)c1ccc(O)cc1` (centres undefined) had a melting point of 181 to 183 °C.
To `Fc1ccc(-c2ncn(CCCSc3ccccc3)c2-c2ccncc2)cc1` belongs 98 to 99 °C; to `CC(C)([C@H](NC(=O)OCC1c2ccccc2-c2ccccc21)C(=O)O)S(C)(=O)=O`, 189 to 192 °C; to `O=C1c2ccc([N+](=O)[O-])cc2CC1Br` (centres undefined), 88.5 to 90.5 °C.
To `CCOP(=O)(NC(=O)c1[nH]c2cc(OC)c(OC)cc2c1-c1ccc(OC)c(OC)c1)OCC` belongs 217 to 219 °C; to `CN(C)C=Nc1snc(C#N)c1C#N`, 173 °C; to `CN1C(=O)C(c2cccc(-c3cccnc3F)c2)(c2cc(C=O)n(CCF)c2)N=C1N` (centres undefined), 218 to 221 °C.
To `CC(=O)Nc1ccc(OCC2CCC=CO2)cc1` (centres undefined) belongs 114 to 116 °C; to `Fc1ccc(Oc2ccnc3cccnc23)cc1`, 122 to 124 °C.
With `CCN1C(=O)C(=O)c2cc(S(=O)(=O)N(C)C)ccc21`, the melting point fell in the range of 165 to 167 °C.
To `CSC(=S)N1CCN(Cc2cc(OC(C)=O)c(OC(C)=O)c(OC(C)=O)c2)CC1` belongs 141 to 143 °C.
To `Cc1c(C)c(N2CCN(c3ccc(Br)cc3)CC2)c(C)c2c1OC(C)C2` (centres undefined) belongs 202 to 204 °C.
On to `Cc1ccc(CC2CCC(C)(C)C2(O)Cn2cncn2)cc1` (centres undefined), for which the melting point was in the range of 118 to 120 °C.
To `Cc1cc(F)cnc1Cl` belongs 38 to 40 °C.
To `Cc1ccc(CCC(N)CC(=O)O)cc1` (centres undefined) belongs 206 to 207 °C; to `Cc1ccc2c(c1)NC(NC(C)C)=NS2(=O)=O`, 137 to 139 °C; to `COc1cc(CNc2nc(C)nc(C)c2Cl)ccc1OCc1ccccc1`, 101 to 105 °C.
To `CN1CCC(O)(c2cccc(Cl)c2F)C1` (single isomer, unassigned; (+)) belongs 123 to 125 °C; to `CCCc1nc2c(N)nc3cc(O)ccc3c2s1`, 236 to 239 °C.
Compound `CC(C)(CNc1ccc(C(=O)CCCC(=O)O)cc1)[N+](=O)[O-]` yielded a melting point of 160 to 161 °C.
In the case of `CCOC(=O)c1c(-c2ccc(F)cc2)oc(-c2ccc(F)cc2)cc1=O`, the melting point lay within 113 to 114 °C.
To `CN(Cc1ccc(F)cc1)C1CCN(c2ccc(Cl)cc2)CC1` belongs 72 to 73 °C.
In the case of `O=C1N[C@H](Cc2ccc(C(F)(F)F)cc2)[C@H](c2ccccc2F)O1` (racemic) it was 146 to 147 °C; in that of `Cn1nc(C(=O)NCc2ccc(Cl)cc2)c(=O)c2cc(I)ccc21`, 194 to 195 °C; in that of `CS(=O)(=O)N1CCC(C2=C(C#N)C(c3cccc(C#N)c3Br)c3c[nH]nc3N2)CC1` (centres undefined), more than 280 °C.
To `CC(C)C(Br)C(=O)Nc1ccccc1O` (centres undefined) belongs 110 to 111 °C; to `CSc1ncccc1NC(=O)CCCCCSc1nc2ccccc2[nH]1`, 121 to 123 °C; to `CC(C)(C)OC(=O)Nc1ccc(-c2ccccc2F)cc1NC(=O)CC(=O)c1ccc(C#N)s1`, 201 °C.
As for `COC(=O)c1ccccc1C(=O)n1nc(O)ccc1=O`, the melting point is 144 to 145 °C.
In the case of `COc1cc(-c2nnc3n2CCC[C@]3(Oc2cc(F)c(F)c(F)c2)C(C)(C)O)ccc1-c1cnc(C)o1` it was 188 °C; in that of `COc1ccc2c(CCBr)c[nH]c2c1`, 98 to 101 °C; in that of `COc1ccc2c(c1Cl)c(CC(=O)O)c(C)n2C(=O)c1ccc(Cl)s1`, 169 °C.
Consider `CC(C)(C)c1cc(C2CCC3SC2CCC3c2cc(C(C)(C)C)c(O)c(C(C)(C)C)c2)cc(C(C)(C)C)c1O` (centres undefined), for which the melting point fell in the range of 247 to 250 °C.
In the case of `COc1cc(Nc2nccc(-c3cccnc3)n2)ccc1-n1cnc(C)c1` it was 204 to 206 °C; in that of `Fc1ccc2c(C3=CCN(CCC4OCCc5cc(Br)ccc54)CC3)c[nH]c2c1` (centres undefined), 184 to 186 °C; in that of `CC(C)(C)OC(=O)C(Br)=CC1C(C(=O)O)C1(C)C` (centres undefined), 76 °C.
To `Cc1cccc(Nn2cnc(C)c2-c2cccc(C#N)c2)c1` belongs 138 to 140 °C.
To `O=c1[nH]nc2ccc(-c3ccccc3)nn12` belongs 255 to 257 °C; to `CC1(C)C(c2ccc(S(C)(=O)=O)cc2)=C(c2ccccc2)C1F` (centres undefined), 79 to 81.5 °C.
With `CC12CCC(=O)C=C1CCC1C2CCC2(C)C(C(=O)c3ccccc3)CCC12` (centres undefined), the melting point lay within 171 to 173 °C.
Compound `Cc1nc(NC(=O)N(C)C)sc1C` gave a melting point of 202 to 204 °C.
Turning to `CSc1nccc(-c2c[nH]c(=O)n2-c2ccc(F)cc2)n1`, the melting point is 260 to 261 °C.
As to `C1=Cc2ccccc2ON1`, the melting point fell in the range of 134 to 136 °C.
In the case of `Cc1nc(-n2ccc(OCc3ccc(OC(F)F)cc3)cc2=O)sc1C(=O)NCc1ccc(F)cc1` it was 242 to 244 °C; in that of `Cc1cc(NC(=O)c2ccccc2O)cc(Cl)c1O`, 192 to 194 °C.
Compound `O=C(O)Cc1ccc2c(c1)Cc1ccccc1C(=O)C2` had a melting point of 186 to 188 °C.
In the case of `CCN(CC)OP(=O)(Oc1ccccc1)Oc1ccccc1` it was 51 to 53 °C; in that of `Cc1ccc(-c2nn3cccnc3c2CC(N)=O)cc1`, 225 to 226 °C.
In the case of `CNC(=O)c1ccc(Nc2nccc(-c3cccnc3)n2)cc1` it was 254 to 257 °C; in that of `CC(C)(C)OC(=O)Nc1ccc(OC2CN(CC(c3ccccc3)c3ccccc3)C2)cc1`, 149 to 151 °C.
`CC(C)C[C@@H](C=NNC(N)=O)NC(=O)[C@H](Cc1c[nH]cn1)NC(=O)C(Cc1ccccc1)Cc1ccccc1` displayed a melting point of 111 to 115 °C.
For `Cc1cc([N+](=O)[O-])c(NC(C)C)c([N+](=O)[O-])c1NC(C)C`, the melting point was 96 to 97 °C.
Turning to `CNC(=O)c1cc(=NS(=O)(=O)c2ccccc2)c2c(Cl)cc(Cl)cc2[nH]1`, the melting point was 196 to 197 °C.
In the case of `Cc1cn2c(N)c(Cl)cc(C(=O)NCC3CCN(C(C)C(=O)C(C)(C)C)CC3)c2n1` (centres undefined) it was 207 °C; in that of `CC1(C)CCCN(C(=O)CN(C(=O)CNC(=O)Nc2cccc(CO)c2)c2ccccc2)C1`, 248 °C; in that of `O=C(CCCOc1ccc2nc3[nH]c(=O)[nH]c3cc2c1)NC1CCCC1`, more than 320 °C.
To `CC(=O)Nc1ncc(-c2ccncc2)cn1` belongs 261 to 264 °C; to `CC(C)[C@H](NC(=O)OC(C)(C)C)C(=O)Nc1c(C(=O)CC(=O)Nc2nccs2)cccc1C(F)(F)F`, 120 °C; to `CC(=O)OC1CCC2(C)C(=CCC3C2CCC2(C)C(C(C)=O)=CCC32)C1` (centres undefined), 169 to 172 °C.
To `O=Cc1cc(OCc2ccccc2)c(OCc2ccccc2)cc1Cl` belongs 100 to 102 °C.
With `CCN1CCN(Cc2ccc(CCn3cnc4cc(-c5ccc(Cl)cc5)sc4c3=O)cc2)C(=O)C1=O`, the melting point was in the range of 285 to 288 °C.
To `O=C(O)c1ccc(NC(=O)c2ccccc2SSc2ccccc2C(=O)Nc2ccc(C(=O)O)cc2)cc1` belongs more than 285 °C; to `CCOC(=O)c1c(C(C)(C)O)nc(CO)n1Cc1ccc(-c2ccccc2-c2nnn[nH]2)cc1`, 98 to 99 °C.
To `CNC(=O)NC(=O)C(CC1CCCC1)c1ccc(-c2cccc3ccccc23)cc1` (centres undefined) belongs 85 to 88 °C; to `CC1NS(=O)(=O)c2sccc21` (centres undefined), 79 to 81 °C.
In turn, `Cc1ncc([N+](=O)[O-])n1CCN(CCCC(C)N(CCn1c([N+](=O)[O-])cnc1C)CCn1c([N+](=O)[O-])cnc1C)CCn1c([N+](=O)[O-])cnc1C` (centres undefined) showed a melting point of 150 to 151 °C.
The compound `CCC1(CC)COC(=O)N1c1nc(-c2ccc(C#N)cc2)c(F)s1` registered a melting point of 151 to 153 °C.
In the case of `COc1ccc(N)c(-c2cc3ccccc3[nH]2)c1` it was 97 to 99 °C; in that of `CCNC(=O)c1c(C)cccc1N(C)C(C)(C)C`, 101 to 103 °C; in that of `NCCc1ncccc1C(N)=O`, 54 °C.
In the case of `c1ccc([C@@]23O[C@@H]2CCc2ccccc23)cc1` it was 124 to 126 °C; in that of `N#Cc1ccnc(Cl)c1Cl`, 65 to 69 °C; in that of `Cc1ccc(Oc2cccc(C#CC(C)N(O)C(N)=O)c2)cc1F` (centres undefined), 128 to 130 °C.
To `CN(C)Cc1ncc2c(c1O)COC2(c1ccccc1)c1ccc(F)cc1` (centres undefined) belongs 184 °C.
For the compound `CCOC(=O)c1c(O)c2cccnc2n(C)c1=O`, the melting point lay within 158 to 160 °C.
In the case of `C/C(=C\CC1OC(=O)NC1=O)c1cccc(OCc2nc(-c3ccc(OCC(F)(F)F)cc3)oc2C)c1` (centres undefined) it was 120 to 121 °C.
In the case of `COc1ccc(N2C(=O)N(C(C)CO)c3nc(Nc4ccccc4)ncc3C2C)cc1` (centres undefined) it was 165 to 180 °C; in that of `O=C(CCl)c1ccc(OCCOc2ccc(C(=O)CCl)cc2)cc1`, 165 °C.
In the case of `Cc1cc(=O)[nH]c2nc(CCCCCN3CCN(c4cccc(Cl)c4Cl)CC3)ccc12` it was 195 to 196 °C; in that of `CNC(=O)N(O)Cc1ccc(Br)cc1`, 165 to 167 °C; in that of `CCc1[nH]n(C2CCCC2)c2nc(Cc3ccccc3OC)nc(=O)c1-2`, 145 to 146 °C.
With `CN(C)C(=O)n1cc(C(=O)C2CSC(c3cccnc3)N2)c2ccc(-c3ccccc3)cc21` (centres undefined), the melting point was in the range of 91 to 97 °C.
Compound `COC=C(C(=O)OC)c1ccccc1CC(=O)c1ccccc1Cl` had a melting point of 70 to 75 °C.
Turning to `CSc1ccc(Cl)c(C(=O)NCC23CC4CC(CC(C4)C2)C3)c1`, the melting point lay within 126 to 127 °C.
To `CCc1ncnc(Sc2ccc(Cl)cc2)c1F` belongs 44.1 to 45.5 °C; to `CC(C)[C@@H]1C[C@@H](CO)NC1=O`, 55.9 °C; to `Cn1cc(-c2cccc(N3Cc4cc(C(C)(C)C)ccc4C3=O)c2CO)cc(Nc2ccc(C3CN(C(=O)OC(C)(C)C)C3)cn2)c1=O`, 151 to 152 °C.
